These results are taken from PMC12214830, “The human RIF1-Long isoform interacts with BRCA1 to promote recombinational fork repair under DNA replication stress” (Nature Communications, 2025).

One assay has as its system HCT116 cells. Put plainly: colony formation (clonogenic survival) assay, HCT116 cells. The assay is classed as cell-based, human. As to the method:
For HCT116-derived cells, cells were plated in 6-well plates at 250 cells/well, in triplicate for each drug concentration. Cells were incubated with drugs for 24 h, after which drug-containing medium was replaced with drug-free medium. Seven days later colony counting was performed using a Nikon Eclipse TS100 microscope. For the IR sensitivity test, cells were plated following the same procedure, then irradiated at desired doses and incubated for 7 days before colony counting. Clusters with more than 20 cells were counted as colonies. Mean and standard error of each triplicate was calculated.

The test system of assay [1] is RIF1-BRCA1 proximity in RPE-1 cells. The experiment in a line: RIF1-BRCA1 proximity ligation assay, RPE-1 cells. The assay is classed as cell-based, human. As to the method:
(§1) Proximity ligation assays were performed using the Duolink In Situ PLA Fluorescence Protocol (Sigma-Aldrich, DUO92101) following the manufacturer’s instruction. Cells were grown on glass coverslips and treated as indicated for specific experiments. Cells were then permeabilized with 0.5% TritonX-100 in PBS for 10 min on ice, and fixed with 3% formaldehyde, 2% sucrose in PBS for 10 min at room temperature (RT). After fixation, coverslips were blocked in 3% BSA in PBS for 1 h at RT and incubated with primary antibodies (anti-RIF1, Bethel laboratories A300-568A, 1:1000 dilution; anti-BRCA1, Santa Cruz Biotechnologies, sc-6954, 1:200 dilution), for 1 h at RT in a humidity chamber. Primary antibodies were then washed off with PLA washing buffer A supplied in the Duolink In Situ PLA kit. Coverslips were next incubated sequentially with PLA Probes (1 h at 37 °C), ligation solution (30 min at 37 °C) and amplification solution (100 min at 37 °C), with washes by washing buffer A in between each step. At the end of incubation, coverslips were washed with washing buffer B supplied in the Duolink In Situ PLA kit. Coverslips were then mounted on glass slides with PLA Mounting medium with DAPI. Images were captured by fluorescence microscopy (Zeiss Axio Imager). PLA foci number in each nucleus were analysed by CellProfiler Software[74] with a custom-made pipeline.
For EdU labelling combined with proximity ligation assay, cells were labelled with 10 µM EdU for 15 min, washed free of EdU and next incubated with medium containing 4 mM HU medium for 4 h. Cells were then permeabilized, fixed and subjected to RIF1-BRCA1 PLA procedures. After all PLA steps, EdU detection was performed following manufacturer’s instructions in the Click-iT EdU Imaging Kit (Invitrogen, C10640).
(§2) For proximity ligation assays and immunofluorescence signal intensity measurements, when comparing between two samples, statistical significance of differences was calculated by Mann-Whitney test for non-parametric distributions using GraphPad Prism software (v.9). When comparing among three or more samples, p values were calculated by Kruskal-Wallis test for non-parametric distributions with Dunn’s multiple comparisons using GraphPad Prism software (v.9). For RIF1 foci formation analysis (Fig. 6B), p values were calculated by two-tailed Student’s t test. For nuclear BRCA1 intensity fold change analyses (Fig. 6C, D), p values were calculated by two-tailed one-sample t test using GraphPad Prism software (v.9). For RAD51 foci formation analyses (Fig. 7B, E and Supplementary Fig. 7B), p values were calculated by chi-square test. For HR Reporter assay analysis (Fig. 7G and Supplementary Fig. 7L), p values were calculated by two-tailed paired Student’s t test. For micronuclei frequency analysis (Fig. 7H), p values were calculated by one-tailed paired Student’s t test. All Student’s t tests were performed with Excel T.TEST function. Chi-square tests were performed with the online Chi-square test calculator at https://www.socscistatistics.com/tests/chisquare2/default2.aspx. Sample number n for all box-and-whisker plots and dot plots are listed in Supplementary Data 1.

The subject of assay [2] is RIF1-BRCA1 proximity in HeLa cells. The experiment in a line: RIF1-BRCA1 proximity ligation assay, HeLa cells. The class given is cell-based, human. Particulars: HeLa +RIF1-L. As to the method:
as §1, §2

The subject of a further assay is RIF1-L-pS2265 antibody. The experiment in a line: ELISA, RIF1-L pS2265 antibody binding to exon 31 peptides. Further details: key: absorbance at 450 nm, blank-subtracted. As for the experimental part: Two biotinylated peptides corresponding to exon 31 of human RIF1-L without phosphorylation (Biotin-(long chain)-[…]) and with phosphorylation at S2265 (Biotin-(long chain)-[…]-pS-[…]) were synthesised by Eurogentec Ltd (Southampton, Hampshire, UK). Two peptides were mixed in a variable ratio of 0–1% phosphorylated peptide/total peptide. The concentration of total peptide was kept constant at 250 nM in the ELISA wash buffer (1x TBS with 0.1% BSA and 0.05% Tween-20). The peptides were incubated within streptavidin-coated 96-well plates (Pierce Streptavidin Coated High Capacity Plates, Thermo Scientific, 15500) for 2 h at room temperature. After washing with ELISA wash buffer, the RIF1-L pS2265 phospho-antibody (1:2500 dilution) was added and incubated for 2 h at room temperature, followed by washing and incubation with HRP-conjugated secondary antibody (anti-rabbit; Bio-Rad #1706515, 1/10,000 dilution) for 1 h at room temperature. After washing, TMB substrate solution (1-Step Slow TMB-Elisa Substrate Solution, ThermoFisher, 34024) was added to develop the blue colour. 1 N HCl was then added to stop the reaction. Absorbance at 450 nm was measured. The average readings of the blank wells were subtracted. Mean and standard deviations of technical triplicates are shown.

In a further assay the test system is micronuclei. The experiment in a line: micronuclei frequency, HeLa cells. The assay is classed as cell-based, human. The following applies: Fig.7H. As to the method:
as §2

[3] abbreviates: Fig S4I, ATMi (KU-60019) 2µM + HU 4mM 24hr.
Where [4] appears, read: Fig S4J, DNA-PKi (NU-7441) 1µM + HU 4mM 24hr.
Setting [5] is: HeLa RIF1 KO + GFP-RIF1 derivative cells, HU, experiment 07Jun2024.
The mark [6] stands for this setting: HeLa RIF1 KO + GFP-RIF1 derivative cells, unt, experiment 07Jun2024.

In the case of `C[C@@]1(CO)[C@H](O)CC[C@@]2(C)[C@H]1CC[C@H]1C[C@@H]3C[C@@]12CC[C@]3(O)CO` [APH, aphidicolin], the “colony survival, RIF1-L cells” value in the assay on HCT116 cells (HCT116 expressing only RIF1-L, versus RIF1-WT) is recorded as “RIF1-L conferred resistance comparable to RIF1-WT”. Also, the “colony survival, RIF1-S cells” value in the assay with HCT116 cells (HCT116 expressing only RIF1-S, versus RIF1-KO) is reported as “exhibited hypersensitivity to these drugs similar to RIF1-KO cells”. The “RIF1-BRCA1 PLA foci” value in assay [1] (APH 4 µM 24 h) is “also induced PLA foci”. Further, in assay [1] (Fig 3C, APH 4 µM 24 h), the “RIF1-BRCA1 PLA foci per nucleus, mean” value amounted to 1.540 and the “RIF1-BRCA1 PLA foci per nucleus, median” value was found to be 1.

As for `C[C@@H]1CN(CC(=O)Nc2ccc3c(c2)Cc2cccc(-c4cc(=O)cc(N5CCOCC5)o4)c2S3)C[C@H](C)O1` [KU-60019], in assay [2] (setting [3]), the “RIF1-BRCA1 PLA foci per nucleus, mean” value was 18.33 and the “RIF1-BRCA1 PLA foci per nucleus, median” value is listed as 2, 17, 17. Further, the “RIF1-BRCA1 PLA” value in assay [2] (ATMi (KU-60019) 2 µM 24 h + HU 4 mM 24 h) was “no apparent effect”.

Turning to `O=c1cc(N2CCOCC2)oc2c(-c3cccc4c3sc3ccccc34)cccc12` [NU-7441], the “RIF1-BRCA1 PLA” value in assay [1] (DNA-PKi (NU-7441) 1 µM 24 h + HU 4 mM 24 h) is listed as “no apparent effect”. For the same molecule, in assay [1] (setting [4]), the “RIF1-BRCA1 PLA foci per nucleus, mean” value came to 7.597 and the “RIF1-BRCA1 PLA foci per nucleus, median” value was 0, 5, 5.

As for “Biotin-(long chain)-HNTTSAKGFLSPGSR-pS-PKFKSSKKCL [RIF1-L-phosphoS2265 peptide, biotinylated exon 31 peptide of human RIF1-L phosphorylated at S2265]”, the “A450, Average” value is reported as 0.009 in the assay with RIF1-L-pS2265 antibody (0.00% phosphorylated/total peptide (250 nM total), mean of technical triplicates); 0.104 with RIF1-L-pS2265 antibody (0.13% phosphorylated/total peptide (250 nM total), mean of technical triplicates); 0.166 with RIF1-L-pS2265 antibody (0.25% phosphorylated/total peptide (250 nM total), mean of technical triplicates); 0.239 in the assay on RIF1-L-pS2265 antibody (0.50% phosphorylated/total peptide (250 nM total), mean of technical triplicates); 0.346 in the assay on RIF1-L-pS2265 antibody (1.00% phosphorylated/total peptide (250 nM total), mean of technical triplicates); 0.104 in the assay on RIF1-L-pS2265 antibody (Standard 0.13%, average of 3, right block). Also, the “A450, Average” value stood at 0.166 in the assay on RIF1-L-pS2265 antibody (Standard 0.25%, average of 3, right block); 0.239 in the assay with RIF1-L-pS2265 antibody (Standard 0.50%, average of 3, right block); 0.346 in the assay on RIF1-L-pS2265 antibody (Standard 1.00%, average of 3, right block). Also, the A450 was determined as 0.01 with RIF1-L-pS2265 antibody (0.00% phosphorylated/total peptide (250 nM total), replicate 1); 0.008 with RIF1-L-pS2265 antibody (0.00% phosphorylated/total peptide (250 nM total), replicate 2); 0.01 in the assay with RIF1-L-pS2265 antibody (0.00% phosphorylated/total peptide (250 nM total), replicate 3); 0.106 with RIF1-L-pS2265 antibody (0.13% phosphorylated/total peptide (250 nM total), replicate 1); 0.104 in the assay with RIF1-L-pS2265 antibody (0.13% phosphorylated/total peptide (250 nM total), replicate 2); 0.103 in the assay with RIF1-L-pS2265 antibody (0.13% phosphorylated/total peptide (250 nM total), replicate 3). Also, the A450 is recorded as 0.16 with RIF1-L-pS2265 antibody (0.25% phosphorylated/total peptide (250 nM total), replicate 1); 0.169 in the assay with RIF1-L-pS2265 antibody (0.25% phosphorylated/total peptide (250 nM total), replicate 2); 0.169 in the assay on RIF1-L-pS2265 antibody (0.25% phosphorylated/total peptide (250 nM total), replicate 3); 0.247 in the assay on RIF1-L-pS2265 antibody (0.50% phosphorylated/total peptide (250 nM total), replicate 1); 0.216 in the assay with RIF1-L-pS2265 antibody (0.50% phosphorylated/total peptide (250 nM total), replicate 2); 0.255 in the assay on RIF1-L-pS2265 antibody (0.50% phosphorylated/total peptide (250 nM total), replicate 3). For the same molecule, the A450 in the assay with RIF1-L-pS2265 antibody (1.00% phosphorylated/total peptide (250 nM total), replicate 1) amounted to 0.348; with RIF1-L-pS2265 antibody (1.00% phosphorylated/total peptide (250 nM total), replicate 2), 0.343; in the assay with RIF1-L-pS2265 antibody (1.00% phosphorylated/total peptide (250 nM total), replicate 3) it was 0.347; in the assay with RIF1-L-pS2265 antibody (Standard 0.13%, replicate 1, left block), 0.155; in the assay with RIF1-L-pS2265 antibody (Standard 0.13%, replicate 1, right block (0.049 below left block)) it was 0.106; in the assay with RIF1-L-pS2265 antibody (Standard 0.13%, replicate 2, left block), 0.153. Also, the A450 in the assay with RIF1-L-pS2265 antibody (Standard 0.13%, replicate 2, right block (0.049 below left block)) is given as 0.104; with RIF1-L-pS2265 antibody (Standard 0.13%, replicate 3, left block), 0.152; with RIF1-L-pS2265 antibody (Standard 0.13%, replicate 3, right block (0.049 below left block)), 0.103; with RIF1-L-pS2265 antibody (Standard 0.25%, replicate 1, left block), 0.209; in the assay with RIF1-L-pS2265 antibody (Standard 0.25%, replicate 1, right block (0.049 below left block)), 0.16; with RIF1-L-pS2265 antibody (Standard 0.25%, replicate 2, left block) it was 0.218. Besides, the A450 worked out at 0.169 in the assay on RIF1-L-pS2265 antibody (Standard 0.25%, replicate 2, right block (0.049 below left block)); 0.218 in the assay on RIF1-L-pS2265 antibody (Standard 0.25%, replicate 3, left block); 0.169 with RIF1-L-pS2265 antibody (Standard 0.25%, replicate 3, right block (0.049 below left block)); 0.296 with RIF1-L-pS2265 antibody (Standard 0.50%, replicate 1, left block); 0.247 with RIF1-L-pS2265 antibody (Standard 0.50%, replicate 1, right block (0.049 below left block)); 0.265 with RIF1-L-pS2265 antibody (Standard 0.50%, replicate 2, left block). The A450 in the assay with RIF1-L-pS2265 antibody (Standard 0.50%, replicate 2, right block (0.049 below left block)) is 0.216; with RIF1-L-pS2265 antibody (Standard 0.50%, replicate 3, left block), 0.304; in the assay with RIF1-L-pS2265 antibody (Standard 0.50%, replicate 3, right block (0.049 below left block)) it was 0.255; with RIF1-L-pS2265 antibody (Standard 1.00%, replicate 1, left block), 0.397; in the assay with RIF1-L-pS2265 antibody (Standard 1.00%, replicate 1, right block (0.049 below left block)), 0.348; with RIF1-L-pS2265 antibody (Standard 1.00%, replicate 2, left block), 0.392. Moreover, the A450 in the assay with RIF1-L-pS2265 antibody (Standard 1.00%, replicate 2, right block (0.049 below left block)) turned out to be 0.343; in the assay with RIF1-L-pS2265 antibody (Standard 1.00%, replicate 3, left block), 0.396; in the assay on RIF1-L-pS2265 antibody (Standard 1.00%, replicate 3, right block (0.049 below left block)), 0.347.

On to Phleomycin, for which the “colony growth after treatment, RIF1-L and RIF1-S cells” value in the assay with HCT116 cells (HCT116 expressing only RIF1-L or only RIF1-S) is “able to support colony growth”.

Turning to RIF1-L -APKF, the “Micronuclei per 100” value in the assay with micronuclei (HU, experiment 14Apr2024) is 14.2857; with micronuclei (setting [5]), 12.35; in the assay with micronuclei (setting [6]) it was 6.03; in the assay on micronuclei (unt, experiment 14Apr2024), 4.214.

Take RIF1-S: the “Micronuclei per 100” value in the assay with micronuclei (HU, experiment 14Apr2024) is on record as 12.4358; with micronuclei (setting [5]), 12.93; in the assay on micronuclei (setting [6]), 6.41; with micronuclei (unt, experiment 14Apr2024) it was 6.217.
